In series [1] the test system is IMR90 cells. Briefly: In vitro screening of the 14 in silico-selected compounds, surviving cell count, proliferating vs senescent IMR90. The series is classed as cell-based, Homo sapiens. As to conditions: 48 h; for effect on non-senescent IMR90 cells: PD15-PD17, 1 μM; for senolytic activity on senescent IMR90 cells: PD19-PD21, 1 μM. From the text: IMR90 and WI38 lung fibroblasts were purchased from ECACC‐Merck. Human bone marrow (BM)‐derived mesenchymal stromal cells (MSCs) were purchased from Lonza. Human umbilical vein endothelial cells (HUVECs) are primary cells obtained from a pool of donors purchased from Clonetics (Lonza). Murine ear fibroblasts (MearFs) were obtained from C57BL/6J mice maintained in the INRCA “Specific Pathogen Free” (SPF) animal facility. MCF7 breast cancer cells were purchased from ATCC. For dose–response curves, IMR90 and WI38 were induced to senescence through replicative passages; MSCs, HUVECs, and MearFs senescence was induced with Doxorubicin; MCF7 senescence was induced with 4‐Hydroxytamoxifen (Lee et al. [2014]). The EC50 was calculated using GraphPad Prism 10 software. All treatment specifications are reported in the extended section.
Cell culture and treatment. IMR90 cells (Homo sapiens, fetal lung, fibroblast) and WI38 cells (Homo sapiens, fetal lung, fibroblast) were purchased from ECACC-Merck (Merck, Darmstadt, Germany) and cultured in MEM medium (Euroclone, Milano, Italy) supplemented with 1% L-Glutamine (Euroclone, Milano, Italy), 1% Penicillin-Streptomycin (Euroclone, Milano, Italy), and 10% Fetal Bovine Serum (FBS, Euroclone, Milano, Italy), at 37°C, 5% CO2. IMR90 cells with a population doubling (PD) from PD15 to PD23 were used; cells were considered incrementally senescent from passage PD19 to passage PD23. WI38 cells were used from PD26 to PD53. Cells were considered incrementally senescent from passage PD49 to passage PD53. For the compounds in vitro screening, IMR90 cells with passages from PD15 to PD23 were tested at increasing concentrations of 0.5 μM, 1 μM, 10 μM, and 25 μM over 24 and 48 h to evaluate the compounds' efficacy and cytotoxicity compared to the Vehicle (DMSO ≤ 0.1%). Cells were counted manually, in triplicate, using Trypan blue reagent (Euroclone) and disposable Bürker chambers. […] K5 dose-response proliferation curves were performed with compound K5 (Molport, SIA, Riga, Latvia) in concentrations 0.1, 0.5, 1, 5, 10, 50, 100, and 200 μM for 48 h. Cells were counted using a Trypan blue reagent and EVAplus cell counter. The EC50s were calculated by analyzing the data using GraphPad Prism 10 software.

A short description of series [2]: Phase I stability in mouse liver microsomes. The series is classed as in vitro ADME. As to conditions: 1 µM, 0.5 mg/mL microsomes. On the procedure:
(§1) APHAD S.r.l (Buccinasco, MI, Italy) performed all evaluations. Detailed protocols are reported in the extended methods section.
(§2) Phase I stability in human and mouse liver microsomes. The metabolic stability of K4 and K5 was evaluated after incubation with mouse and human liver microsomes. Briefly, the 2 compounds were dissolved in DMSO and pre-incubated, at the final concentration of 1µM, for 10 min at 37°C in potassium phosphate buffer 50 mM, pH 7.4, 3 mM MgCl2, with mouse and human liver microsomes (Sigma) at the final concentration of 0.5 mg/mL. After the pre-incubation period, reactions were started by adding the cofactors mixture (NADP, Glc6P, Glc6P-DH in 2% Sodium bicarbonate); samples were taken at time 0, 10, 20, 30, and 60 min, and added to ACN with Verapamil 0.1 µM as Internal Standard (IS) to stop the reaction. After centrifugation, the supernatants were analyzed using LC-MS/MS. A control sample without cofactors was added to check the stability of test compounds in the matrix after 60 min. 7-Ethoxycoumarin (7-EC) and propranolol were added as positive reference standards. Samples were analyzed on Acquity UPLC (Waters) coupled with an API 3200 Triple Quadrupole ABSciex. […] The percent of the area of the test compound remaining at the various incubation times was calculated based on the area of the compound at time 0 min. […]

A short description of series [3]: Phase I stability in human liver microsomes. The format is in vitro ADME. As to conditions: 1 µM, 0.5 mg/mL microsomes. As for the experimental part: as §1, §2
The target of another series is GRP94 (Homo sapiens, UniProt P14625). Briefly: Cellular thermal shift assay (CETSA) on cellular lysates, GRP94. As to conditions: 46°C, compound 0.5 mM.
GRP94, sequence (P14625 22-803): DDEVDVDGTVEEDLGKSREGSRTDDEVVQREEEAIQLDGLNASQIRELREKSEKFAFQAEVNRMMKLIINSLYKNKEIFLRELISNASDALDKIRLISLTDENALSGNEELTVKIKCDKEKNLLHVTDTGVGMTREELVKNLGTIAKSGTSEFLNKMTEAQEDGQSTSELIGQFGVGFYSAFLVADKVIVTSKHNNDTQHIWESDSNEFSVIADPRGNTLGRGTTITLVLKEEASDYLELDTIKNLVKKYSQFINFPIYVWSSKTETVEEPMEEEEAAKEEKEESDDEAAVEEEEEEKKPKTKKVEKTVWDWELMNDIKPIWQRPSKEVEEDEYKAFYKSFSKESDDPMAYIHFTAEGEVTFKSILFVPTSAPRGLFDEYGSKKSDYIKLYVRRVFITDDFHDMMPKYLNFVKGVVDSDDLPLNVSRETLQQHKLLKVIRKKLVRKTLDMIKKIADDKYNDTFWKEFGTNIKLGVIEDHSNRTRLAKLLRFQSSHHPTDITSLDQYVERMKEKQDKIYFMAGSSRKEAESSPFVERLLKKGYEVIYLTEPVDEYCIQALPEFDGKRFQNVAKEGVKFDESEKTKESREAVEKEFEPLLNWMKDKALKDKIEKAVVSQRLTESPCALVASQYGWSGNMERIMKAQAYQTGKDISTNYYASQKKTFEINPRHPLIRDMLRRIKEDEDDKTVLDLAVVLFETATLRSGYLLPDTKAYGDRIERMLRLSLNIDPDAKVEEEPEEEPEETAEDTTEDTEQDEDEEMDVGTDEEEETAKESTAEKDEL
In the next series the target is HSP90α (Homo sapiens, UniProt P07900). Nature of the series: Cellular thermal shift assay (CETSA) on cellular lysates, HSP90α. As to conditions: 46°C, compound 0.5 mM.
The test system of series [4] is IMR90 cells. Nature of the series: SA-β-galactosidase colorimetric assay on senescent IMR90. The format is cell-based, Homo sapiens. On the procedure: Previously treated cells were fixed according to the protocols established by the supplier (Cell Signaling). The images were acquired using an optical microscope (Leica) with 5× and 10× magnification (MAG) or the phase microscopy EVOS XL Core at 10× MAG and analyzed using the ImageJ software. The mean signal intensity was then normalized for the total number of cells.
β-galactosidase colorimetric assay. For cell cultures: Previously treated cells were fixed with the fixative solution for 10 min at RT according to the protocols established by the supplier (Senescence β-Galactosidase Staining Kit, #9860S, Cell Signaling, Danvers, MA, USA) Cells were then incubated with the substrate, X-gal, in a solution at pH 6, at 37°C, overnight (16 h) (Itahana et al. 2007). The images were acquired using an optical microscope (Leica, Wetzlar, Germany) with 5 and 10X magnification or the phase microscopy EVOS XL Core at 10X magnification. The images were analyzed using the ImageJ software, quantifying the colorimetric signal emitted by each cell. The mean signal intensity was then normalized for the total number of cells.

“Also recorded” adds a separate entry of the source.

Experimental for GRP94: (§3) Cellular Thermal Shift Assay (CETSA). […] Briefly, the cellular extract was lysed in RIPA buffer (10 mM Tris-HCl pH 7.4, 250 mM NaCl, 1% NP40/IGEPAL, 1% DOC, 0.01% SDS, 0.01% Glycerol, supplemented with protease/phosphatase inhibitor, PI/PhI mix and 2 mM DTT) and protein concentration was determined by a BCA kit (Pierce, Life Technologies, TFS, Waltham, MA, USA). Samples were homogenized by 3 cycles of freeze-thawing using liquid nitrogen and centrifuged at 13000 rpm at 4 °C for 30 min to separate the soluble fraction from the debris.
(§4) Following the supplier's recommendations, samples were loaded into the proper cartridge (12- 230 kDa Wes/Jess Separation Modules, ProteinSimple, Biotechne, Minneapolis, MN, USA). HSP90α (1:50, MsMAb, Abcam), HSP90β (1:50, RbMAb, Abcam), GRP94 (1:50, RbMAb, Abcam), TRAP1 (1:50, MsMAb, Abcam), α-Tubulin (1:500, MsMAb, Abcam), and β-Actin (1:500, RbMAb, Abcam) were used as primary antibodies. Secondary antibodies were Anti-Mouse Secondary HRP and Anti-Rabbit Secondary HRP (ProteinSimple, Biotechne, Minneapolis, MN, USA).
Experimental for HSP90α: as §3, §4

For `CC(C)(C)S(=O)(=O)C/C(N)=N/OS(=O)(=O)c1ccc(F)cc1F` [Compound K4, (Z)-N'-[(2,4-difluorobenzenesulfonyl)oxy]-2-(2-methylpropane-2-sulfonyl)ethanimidamide], in the series on IMR90 cells [1], the “effect on non-senescent IMR90 cells” value was “robust level of safety” and the “senolytic activity on senescent IMR90 cells” value was “evident senolytic activity; also recorded: highest senolytic activity”. Further, the “clearance in mouse microsomes” value in series [2] is recorded as “medium clearance”. For the same compound, the “metabolic stability in human microsomes” value in series [3] is reported as “stable”. In addition, the “stabilization of GRP94 in CETSA” value on GRP94 was “did not observe a stabilization”. The “interaction / stabilization of HSP90α in CETSA” value on HSP90α was “potent and selective interaction”.

As to `Cc1ccccc1-n1c(=O)n(Cc2ccccc2)c(=O)c2[nH]cnc21` [Compound K5, 1-benzyl-3-(2-methylphenyl)-7H-purine-2,6-dione], in the series with IMR90 cells [1], the “effect on non-senescent IMR90 cells” value is on record as “robust level of safety” and the “senolytic activity on senescent IMR90 cells” value is recorded as “evident senolytic activity; also recorded: highest senolytic activity”. Besides, the “reduced SA-β-gal+ cells” value with IMR90 cells [4] amounted to 20%. In addition, in series [2], the “clearance in mouse microsomes” value was “medium clearance”. Also, the “metabolic stability in human microsomes” value in series [3] is given as “stable”. Moreover, the “stabilization of GRP94 in CETSA” value on GRP94 is “did not observe a stabilization”. Also, at HSP90α, the “interaction / stabilization of HSP90α in CETSA” value is “potent and selective interaction”.

Source of the values: publication PMC12266748, “A Xanthine Derivative With Novel Heat Shock Protein 90‐Alpha Inhibitory and Senolytic Properties” (Aging Cell, 2025).
